Test results taken from US6998258B1, “L-pantolactone-hydrolase and a method for producing D-pantolactone” (BASF Aktiengesellschaft, priority 1999, dated 2006).
Like-named read-outs stand apart in the source and are kept apart here. Square brackets hold non-standard residues; d marks the D form. Peptide text beside a SMILES is read from it. * marks the point of attachment. Sta = CC(C)C[C@H](N)[C@@H](O)CC(=O)O; Isovaleryl = CC(C)CC(=O)*

Assays:
[1] = test system: L-pantolactone hydrolase from Lu5351; experiment: Substrate specificity of purified L-pantolactone hydrolase from Lu5351 (HPLC); format: biochemical, Agrobacterium radiobacter
[2] = test system: L-pantolactone hydrolase from Lu681; experiment: Optical lipase assay with resorufin ester in microtiter plate; format: biochemical, Burkholderia caryophylli; conditions: Lu681 enzyme, 60 to 482 U/l
[3] = test system: L-pantolactone hydrolase from Lu681; experiment: Substrate specificity of purified L-pantolactone hydrolase from Lu681 (HPLC); format: biochemical, Burkholderia caryophylli
[4] = test system: L-pantolactone hydrolase from Burkholderia caryophylli Lu681; experiment: Inhibition and activation by added substances, standard assay, Lu681 enzyme; format: biochemical
[5] = test system: L-pantolactone hydrolase from Agrobacterium radiobacter Lu5351; experiment: Inhibition and activation by added substances, standard assay, Lu5351 enzyme; format: biochemical
D-pantolactone hydrolase = conditions: cited from earlier work
[6] = test system: recombinant 681 lactonase; format: biochemical, Burkholderia caryophylli
[7] = added substance 1 mM, 150 mM L-pantolactone, 1 h, 30° C., vs no addition
[8] = substrate 2.5 mN, 0.1 U/ml enzyme, 150 mM Pipes pH 6.8
[9] = added substance 0.1%, vs no addition
[10] = substrate 150 mN, 0.1 U/ml enzyme, 150 mM Pipes pH 6.8
[11] = substrate 10 mN, 0.1 U/ml enzyme, 150 mM Pipes pH 6.8
[12] = substrate 50 mN, 0.1 U/ml enzyme, 150 mM Pipes pH 6.8

Question: For `CCCCCCCCCCCCOCC(COC(=O)CCCC(=O)Oc1ccc2nc3ccc(=O)cc-3oc2c1)OCCCCCCCCCCCC` (racemic) [1,2-O-Dilauryl-rac-glycero-3-glutaric acid resorufin ester], which Activity [1] is on record?
Answer: (+) (key: ++: >50 U/l; +: >5 U/l; (+): >0.5 U/l; −: <0.5 U/l)

Question: And the “lipase activity as share of the L-pantolactone hydrolase activity” value [2]?
Answer: about 0.05%

Question: What about the Activity [3] of the same compound?
Answer: (+) (key: ++: >50 U/l; +: >5 U/l; (+): >0.5 U/l; −: <0.5 U/l)

Question: Which “Relative Activity” value [4, 7] does the source give for `O[C@H](CS)[C@H](O)CS` (racemic) [DTT, Dithiothreitol] here?
Answer: 99%

Question: And the “Relative Activity” value [5, 7]?
Answer: 106%

Question: Which Activity [3, 8] does the source give for `O=C1Cc2cc(O)ccc2O1` [5-Hydroxy-2-coumaranone] here?
Answer: + (+: >5 U/l)

Question: For `CC#N` [Acetonitrile], which “Relative Activity” value [4] is on record?
Answer: 119%

Question: Which results are given for `C[C@H](CCC(=O)NCCC[N+](C)(C)CCCS(=O)(=O)[O-])[C@H]1CC[C@H]2[C@@H]3[C@H](O)C[C@@H]4C[C@H](O)CC[C@]4(C)[C@H]3C[C@H](O)[C@]12C` [CHAPS, ([3-Cholamidopropyl]-dimethylammonio)-1-propane-sulfonate]?
Answer: Relative Activity [4, 9]: 104%; Relative Activity [5, 9]: 100%

Question: Which “Relative Activity” value [4] does the source give for `[Ca+2].[Cl-].[Cl-]` [CaCl2] here?
Answer: 101%

Question: And the “Relative Activity” value [5]?
Answer: 105%

Question: With `[Cd+2]` [Cd^2+] as the compound, how does the “inhibition of the enzyme” value (D-pantolactone hydrolase) read?
Answer: inhibited

Question: For `O=C(O)CC(O)(CC(=O)O)C(=O)O` [Citric acid], which “Relative Activity” value ([4]; added substance 30 mM, pH 6.4, vs no addition) is on record?
Answer: 97%

Question: With `[Cu+2]` [Cu^2+] as the compound, how does the “inhibition of the enzyme” value (D-pantolactone hydrolase) read?
Answer: inhibited

Question: With `O=C1OC(C(O)CO)C(O)C1O` [D-(−)-Gulono-γ-lactone] as the compound, how does the Activity ([1]; pH 6.8) read?
Answer: ++ (key: ++: >50 U/l; +: >5 U/l; (+): >0.5 U/l; −: <0.5 U/l)

Question: For `O=C1OC(C(O)CO)C(O)C1O` [D-Galactono-γ-lactone], which Activity ([1]; pH 6.8) is on record?
Answer: ++ (key: ++: >50 U/l; +: >5 U/l; (+): >0.5 U/l; −: <0.5 U/l)

Question: And the Activity ([3]; pH 6.8)?
Answer: + (key: ++: >50 U/l; +: >5 U/l; (+): >0.5 U/l; −: <0.5 U/l)

Question: For `CC1(C)COC(=O)C1O` [D-Pantolactone], which Activity [1, 10] is on record?
Answer: (+) ((+): >0.5 U/l)

Question: What about the type of inhibition [6] of the same compound?
Answer: competitive inhibition

Question: And the Activity [3, 10]?
Answer: − (−: <0.5 U/l)

Question: Which Activity ([1]; pH 6.8) does the source give for `O=C1CCc2ccccc2O1` [Dihydrocumarin] here?
Answer: + (key: ++: >50 U/l; +: >5 U/l; (+): >0.5 U/l; −: <0.5 U/l)

Question: What does the source list for `O=C(O)CN(CCN(CC(=O)O)CC(=O)O)CC(=O)O` [EDTA, Ethylenediaminetetraacetic acid]?
Answer: Relative Activity [4, 7]: 97%; Relative Activity [5, 7]: 97%; inhibition of the enzyme (D-pantolactone hydrolase; U.S. Pat. No. 5,372,940): inhibited

Question: With `CCOC(=O)C(C)O` (stereo not drawn) [Ethyl (L)(−)-lactate] as the compound, how does the Activity [1, 10] read?
Answer: ++ (++: >50 U/l)

Question: What about the Activity [3, 10] of the same compound?
Answer: ++ (++: >50 U/l)

Question: With `CCOC(=O)[C@@H](C)O` [Ethyl D(+)-lactate] as the compound, how does the Activity [1, 10] read?
Answer: + (+: >5 U/l)

Question: And the Activity [3, 10]?
Answer: + (+: >5 U/l)

Question: Which results are given for `[Cl][Fe][Cl]` [FeCl2]?
Answer: Relative Activity [4]: 104%; Relative Activity [5]: 108%

Question: For `OO` [H2O2], which “Relative Activity” value [4] is on record?
Answer: 95%

Question: With `[Cl][Hg][Cl]` [HgCl2] as the compound, how does the “Relative Activity” value [4] read?
Answer: 133%

Question: What about the “Relative Activity” value [5] of the same compound?
Answer: 170%

Question: For `[Hg+2]` [Hg^2+], which “inhibition of the enzyme” value (D-pantolactone hydrolase) is on record?
Answer: inhibited

Question: Which Activity [1, 11] does the source give for `O=C1Nc2ccccc2C1=O` [Isatin] here?
Answer: (+) ((+): >0.5 U/l)

Question: What about the Activity [3, 11] of the same compound?
Answer: + (+: >5 U/l)

Question: For `CC(C)O` [Isopropanol], which “Relative Activity” value ([4]; added substance 10%, vs no addition) is on record?
Answer: 93%

Question: Which “Relative Activity” value [4] does the source give for `[Cl-].[K+]` [KCl] here?
Answer: 99%

Question: Which Activity [1, 10] does the source give for `O=C1OC(C(O)CO)C(O)C1O` [L-(+)-Gulono-γ-lactone] here?
Answer: ++ (++: >50 U/l)

Question: What about the Activity [3, 10] of the same compound?
Answer: + (+: >5 U/l)

Question: Which results are given for `O=C1O[C@H]([C@@H](O)CO)[C@@H](O)[C@@H]1O` [L-Galactono-γ-lactone]?
Answer: Activity ([1]; pH 6.8): ++ (key: ++: >50 U/l; +: >5 U/l; (+): >0.5 U/l; −: <0.5 U/l); Activity ([3]; pH 6.8): ++ (key: ++: >50 U/l; +: >5 U/l; (+): >0.5 U/l; −: <0.5 U/l)

Question: Which “Relative Activity” value [4] does the source give for `CO` [MeOH] here?
Answer: 100%

Question: With `[Cl-].[Cl-].[Mg+2]` [MgCl2] as the compound, how does the “Relative Activity” value [4] read?
Answer: 99%

Question: What about the “Relative Activity” value [5] of the same compound?
Answer: 114%

Question: With `[Cl][Mn][Cl]` [MnCl2] as the compound, how does the “Relative Activity” value [4] read?
Answer: 100%

Question: Which “Relative Activity” value [4] does the source give for `Cl.N` [NH4Cl] here?
Answer: 100%

Question: With `[Cl][Ni][Cl]` [NiCl2] as the compound, how does the “Relative Activity” value [4] read?
Answer: 96%

Question: Which “Relative Activity” value [4] does the source give for `O=S(=O)(F)Cc1ccccc1` [PMSF] here?
Answer: 113%

Question: Which “Relative Activity” value [4, 7] does the source give for `CC(C)CC(=O)N[C@H](C(=O)N[C@H](C(=O)N[C@@H](CC(C)C)[C@@H](O)CC(=O)N[C@@H](C)C(=O)N[C@@H](CC(C)C)[C@@H](O)CC(=O)O)C(C)C)C(C)C` [Pepstatin] (Isovaleryl-VV[Sta]A[Sta]-OH) here?
Answer: 117%

Question: For `CC1(C)COC(=O)[C@H]1O` [S-Pantolactone], which Activity ([1]; pH 6.8) is on record?
Answer: ++ (key: ++: >50 U/l; +: >5 U/l; (+): >0.5 U/l; −: <0.5 U/l)

Question: What about the Activity ([3]; pH 6.8) of the same compound?
Answer: ++ (key: ++: >50 U/l; +: >5 U/l; (+): >0.5 U/l; −: <0.5 U/l)

Question: For `CCCCCCCCCCCCOS(=O)(=O)[O-].[Na+]` [SDS, Sodium dodecyl sulfate], which “Relative Activity” value ([4]; added substance 1%, vs no addition) is on record?
Answer: 102%

Question: What about the “Relative Activity” value ([5]; added substance 1%, vs no addition, sulfate) of the same compound?
Answer: 74%

Question: What does the source list for `[Cl-].[Cl-].[Zn+2]` [ZnCl2]?
Answer: Relative Activity [4]: 113%; Relative Activity [5]: 99%

Question: For `c1cnc2c(c1)ccc1cccnc12` [o-Phenanthroline], which “Relative Activity” value [4] is on record?
Answer: 95%

Question: Which “Relative Activity” value [4] does the source give for `O=S(=O)(O)c1cc[c]([Hg][Cl])cc1` [pCMBS, p-Chloromercuribiphenylsulfonic [sic] acid] here?
Answer: 108%

Question: What about the “Relative Activity” value [5] of the same compound?
Answer: 112%

Question: For `CC(=O)Oc1cccc2ccccc12` [α-Naphthyl acetate], which Activity [1, 8] is on record?
Answer: (+) ((+): >0.5 U/l)

Question: And the Activity [3, 8]?
Answer: (+) ((+): >0.5 U/l)

Question: For `O=C1CCCO1` [γ-Butyrolactone], which Activity ([1]; pH 6.8) is on record?
Answer: ++ (key: ++: >50 U/l; +: >5 U/l; (+): >0.5 U/l; −: <0.5 U/l)

Question: What about the Activity ([3]; pH 6.8) of the same compound?
Answer: + (key: ++: >50 U/l; +: >5 U/l; (+): >0.5 U/l; −: <0.5 U/l)

Question: Which results are given for `CC1CCC(=O)O1` (stereo not shown) [γ-Valerolactone]?
Answer: Activity ([1]; pH 6.8): ++ (key: ++: >50 U/l; +: >5 U/l; (+): >0.5 U/l; −: <0.5 U/l); Activity ([3]; pH 6.8): + (key: ++: >50 U/l; +: >5 U/l; (+): >0.5 U/l; −: <0.5 U/l)

Question: Which results are given for `CCCCC1CCCC(=O)O1` (stereo not shown) [δ-Nonalactone]?
Answer: Activity ([1]; pH 6.8): ++ (key: ++: >50 U/l; +: >5 U/l; (+): >0.5 U/l; −: <0.5 U/l); Activity ([3]; pH 6.8): + (key: ++: >50 U/l; +: >5 U/l; (+): >0.5 U/l; −: <0.5 U/l)

Question: For `O=C1CCCCO1` [δ-Valerolactone], which Activity [1, 12] is on record?
Answer: ++ (++: >50 U/l)

Question: What about the Activity [3, 12] of the same compound?
Answer: + (+: >5 U/l)

Question: With `O=C1CCCCCO1` [ε-Caprolactone] as the compound, how does the Activity ([1]; pH 6.8) read?
Answer: ++ (key: ++: >50 U/l; +: >5 U/l; (+): >0.5 U/l; −: <0.5 U/l)

Question: What about the Activity ([3]; pH 6.8) of the same compound?
Answer: ++ (key: ++: >50 U/l; +: >5 U/l; (+): >0.5 U/l; −: <0.5 U/l)

Question: Which “Relative Activity” value [4] does the source give for CoCl2 here?
Answer: 97%

Question: With Triton as the compound, how does the “Relative Activity” value [4] read?
Answer: 104%
